Measured values as given in US20130071897A1, “METHOD FOR CONTROLLING UNDESIRABLE BYPRODUCTS FORMATION CAUSED BY CONTAMINATING ORGANISMS IN THE PRODUCTION OF ETHANOL FROM SYNGAS” (COSKATA, INC., priority 2011, published 2013).
Values joined by “and” are separate entries in the source; they are usually repeats but may differ in a detail not shown here. Identical values can stand only once.

Legend:
[1] = system: butyrogen population; test: 2-L continuous syngas fermenter with butyrogen-contaminated Clostridium autoethanogenum culture; type: cell-based
Protocol: Additional experiments were conducted to determine the effect of the crotonyl derivatives in continuous fermentations containing butyrogen contamination. Compounds A and D were tested in a 2-L fermenter containing a seed culture from a 10,000 gallon bioreactor used in a large scale fermentation run.
To initiate the 2 liter fermentation a seed culture from the large scale fermenter was introduced into the 2 liter fermenter and grown on yeast extract to an OD greater than 1 at which time a substantial production of butyrogens was observed. The 2 liter fermenter was a Sartorius Biostat B Series fermenter that operated as a continuously stirred tank with a mixing speed of 200 rpm. After 24 hours of initial growth a gas stream having a composition 38% CO, 38% H2, 15% C02 and the balance CH4 was introduced into the fermenter. The fermentation was conducted at a temperature of 37° C., a pH of 5.30±0.05 and contained approximately 2 liters of fermentation media having a composition found in Table 8. Fresh fermentation media was continually added to the 2 liter fermenter at rate sufficient to establish a mean cell retention time of 5.8 days. The fermentation was allowed to progress and different concentrations of the compounds A and D were added to the fermentation as intermittent injections at different times. Each injection was allowed to wash out of the fermenter before next injection. The presence of acetate and butyrate compounds in the fermenter along with the OD of the fermentation media are shown in FIG. 3.
After approximately 500 hours of fermenter operation compound A was added directly into the fermenter to a concentration of 500 ppm when the OD was 1.82 and butyrate concentration was 4.5 g/L. Following introduction of the compound, the OD decreased rapidly by almost 50% in the first 24 hours and the butyrate concentration decreased by 20% in the same time period. Also in the first 24 hours the butanol content increased rapidly by 6-fold to 0.68 g/L, indicating rapid conversion of the butyric acid to butanol. The rate of conversion of the butyric acid and the dilution rate of the media combined to dramatically decrease the butyrate production rate until it was brought down to zero within 80 hours of initially adding compound A. (See FIG. 4) In addition the OD continued to decrease to a low of 0.54 after 80 hours.
After approximately 700 hours of fermenter operation and the washout of the first 500 ppm addition of compound A, another 50 ppm of compound A was added directly into the fermenter. A decrease in OD and butyrate concentration (See FIG. 3) followed the 50 ppm addition and continued for at least for the first 3 days.
After approximately another 8 days and the washout of the 50 ppm addition of compound A, the butyrate concentration increased to 2 g/L. At this time another 100 ppm of compound A was added directly into the fermenter approximately 890 hours into the run. […] After about 24 hours, the butyrate concentration began to decrease again declining almost 50% over the next 4 days. (See FIG. 3)
Fermenter operation was continued under the same operating conditions following the 100 ppm addition of compound A. After allowing 20 days for the complete wash out of compound A, 100 ppm of compound D was added directly into the fermenter approximately 1370 hours into the fermenter run. Upon the addition of compound D there was a sharp rise in the ethanol concentration and acetic acid concentration accompanied by a decrease in the butyrate production.
For 12 days after the first injection of compound D into the fermenter, the fermenter was allowed to wash out compound D. Then 500 ppm of compound D was injected directly into the fermenter after about 1660 hours of fermenter operation. (See FIG. 3) The resulting concentrations of the C2 and C4 alcohols and acids from the time of adding the 500 ppm of compound D are shown in Table 10.

[2] = system: C. coskatii; test: Balch tube batch growth of homoacetogen C. coskatii on fructose, optical density; type: cell-based; details: added 21 h after inoculation
Protocol: Compounds A and D were again tested to determine their effect on another known homoacetogen. Each compound was tested in a series of batch experiments to determine the growth response of the homoacetogen to the presence of the compound at varying concentrations. These batch experiments were again all conducted by anoxically filling a Balch tube with 5 ml of a fermentation medium having the composition given in Tables 2 and 3. To expedite results, these batch experiments used fructose as the growth nutrient source for bacteria. Thus, the media included 5 g/L of fructose.
Each tube was inoculated with 0.5 ml of the same strain of C. coskatii bacteria seed culture inoculum. The tubes were maintained at a temperature of 37° C. Twenty one hours after the inoculation of the tube with the bacteria, the different crotonate derivatives from Table 1 were added to different tubes in the amounts indicated in Table 5. This was at a time of early to mid-log phase growth for the bacteria. Each fermentation of the bacteria in the media at the different concentration of crotonate derivatives were allowed to progress and were monitored to determine the bacteria growth at selected intervals of time varying from approximately 20 hours to 50 hours. Growth at the intervals was determined by measurement of the OD in the manner described in Example 1. The ability of a tube fermentation at a particular concentration of crotonate derivative to reach a predetermined optical density was recorded in Table 5. Table 5 indicates the presence of bacterial growth to an OD of approximately 1.6 or above with a “+”. All the samples of C. Coskatii reached a relatively high OD after a time of only 50 hours.

[3] = 500 ppm compound A, 0.0 Hr after addition
[4] = 500 ppm compound A, 24.0 Hr after addition
[5] = 500 ppm compound A, 49.0 Hr after addition
[6] = 500 ppm compound A, 80.0 Hr after addition
[7] = 500 ppm compound A, 121.0 Hr after addition
[8] = 500 ppm compound A, 145.0 Hr after addition
[9] = 500 ppm compound A, first 24 hours
[10] = approximately 140 hours after 500 ppm addition of compound A
[11] = 100 ppm compound D at approximately 1370 hours
[12] = 500 ppm compound D, 0 Hr after addition
[13] = 500 ppm compound D, 30 Hr after addition
[14] = 500 ppm compound D, 49 Hr after addition
[15] = 500 ppm compound D, 73 Hr after addition
[16] = 500 ppm compound D, 123 Hr after addition
[17] = 500 ppm compound D, 145 Hr after addition
[18] = 500 ppm compound D, 168 Hr after addition
[19] = 500 ppm compound D, 193 Hr after addition
[20] = 500 ppm compound D, 217 Hr after addition
[21] = 500 ppm compound D, 240 Hr after addition

## CCOC(=O)C=C(C(F)(F)F)C(F)(F)F [Compound A, ethyl 4,4,4-trifluoro-3-(trifluoromethyl)crotonate]
[1]; 2-L butyrogenic reactor, 500, 50 and 100 ppm trials
  Effect on the butyrogen population shortly after addition: inhibitory and bactericidal effect
[1]; 50 ppm compound A at approximately 700 hours
  Concentration of ethanol and acetic acid: continued increase
[1]; 50 ppm compound A at approximately 700 hours, at least first 3 days
  OD and butyrate concentration: decrease
[1]; 100 ppm compound A at approximately 890 hours
  Ethanol concentration: began to immediately increase
[1]; 100 ppm compound A at approximately 890 hours, over 4 days, starting about 24 hours after addition
  Decline of butyrate concentration: ~50%
[1]; [3]
  Acetic acid: 3.237 g/L
  Butyric acid: 4.5 g/L and 4.503 g/L
  Ethanol: 0.026 g/L
  OD @600 nm: 1.82
  n-Butanol: 0.109 g/L
[1]; [4]
  Acetic acid: 2.728 g/L
  Butyric acid: 3.600 g/L
  Ethanol: 0.266 g/L
  OD @600 nm: 1.09
  n-Butanol: 0.68 g/L and 0.681 g/L
[1]; [5]
  Acetic acid: 2.333 g/L
  Butyric acid: 3.074 g/L
  Ethanol: 0.255 g/L
  OD @600 nm: 0.76
  n-Butanol: 0.601 g/L
[1]; [6]
  Acetic acid: 1.959 g/L
  Butyric acid: 2.542 g/L
  Ethanol: 0.212 g/L
  OD @600 nm: 0.54
  n-Butanol: 0.497 g/L
[1]; [7]
  Acetic acid: 2.446 g/L
  Butyric acid: 1.842 g/L
  Ethanol: 0.345 g/L
  OD @600 nm: 0.75
  n-Butanol: 0.513 g/L
[1]; [8]
  Acetic acid: 4.082 g/L
  Butyric acid: 1.645 g/L
  Ethanol: 0.441 g/L
  OD @600 nm: 1.17
  n-Butanol: 0.311 g/L
[1]; [9]
  Decrease of OD: ~50%
  Decrease of butyrate concentration: 20%
  Increase of butanol content: 6 fold
[1]; 500 ppm compound A, from initial addition
  Time until butyrate production rate was brought down to zero: ≤ 80 h
[1]; [10]
  Acetic acid production: dramatic rise
  Increase in ethanol: over 100%
  OD recovery: nearly recovered to its original level
[2]; 100 ppm(m)
  Optical density valuation of C. coskatii: + (bacterial growth to an OD of approximately 1.6 or above)
[2]; 500 ppm(m)
  Optical density valuation of C. coskatii: + (bacterial growth to an OD of approximately 1.6 or above)
[2]; 1000 ppm(m)
  Optical density valuation of C. coskatii: + (bacterial growth to an OD of approximately 1.6 or above)

## O=C(O)C=C(C(F)(F)F)C(F)(F)F [D, 4,4,4-trifluoro-3-(trifluoromethyl)crotonic acid]
[1]; [11]
  Butanol concentration: rose temporarily
  Butyrate Production: decrease
  Ethanol concentration and acetic acid concentration: sharp rise
[1]; 500 ppm compound D
  Inhibition of butyrogens versus homoacetogenic organisms: butyrogens were specifically inhibited whereas the homoacetogenic organisms were not inhibited
[1]; [12]
  Acetic acid: 8.72 g/L
  Butyric acid: 1.51 g/L
  EtOH: 0.55 g/L
  OD @600 nm: 1.40
  n-Butanol: 0.21 g/L
[1]; [13]
  Acetic acid: 8.48 g/L
  Butyric acid: 1.47 g/L
  EtOH: 0.61 g/L
  OD @600 nm: 1.35
  n-Butanol: 0.23 g/L
[1]; [14]
  Acetic acid: 8.64 g/L
  Butyric acid: 1.44 g/L
  EtOH: 0.69 g/L
  OD @600 nm: 1.23
  n-Butanol: 0.26 g/L
[1]; [15]
  Acetic acid: 8.56 g/L
  Butyric acid: 1.37 g/L
  EtOH: 0.68 g/L
  OD @600 nm: 1.12
  n-Butanol: 0.26 g/L
[1]; [16]
  Acetic acid: 8.72 g/L
  Butyric acid: 1.41 g/L
  EtOH: 0.53 g/L
  OD @600 nm: 0.92
  n-Butanol: 0.19 g/L
[1]; [17]
  Acetic acid: 8.75 g/L
  Butyric acid: 1.36 g/L
  EtOH: 0.88 g/L
  OD @600 nm: 1.12
  n-Butanol: 0.26 g/L
[1]; [18]
  Acetic acid: 8.83 g/L
  Butyric acid: 1.11 g/L
  EtOH: 0.95 g/L
  OD @600 nm: 1.38
  n-Butanol: 0.28 g/L
[1]; [19]
  Acetic acid: 8.86 g/L
  Butyric acid: 1.12 g/L
  EtOH: 0.87 g/L
  OD @600 nm: 1.18
  n-Butanol: 0.24 g/L
[1]; [20]
  Acetic acid: 9.05 g/L
  Butyric acid: 1.13 g/L
  EtOH: 0.84 g/L
  OD @600 nm: 1.24
  n-Butanol: 0.21 g/L
[1]; [21]
  Acetic acid: 9.21 g/L
  Butyric acid: 1.17 g/L
  EtOH: 0.82 g/L
  OD @600 nm: 1.25
  n-Butanol: 0.21 g/L
[2]; 100 ppm(m)
  Optical density valuation of C. coskatii: + (bacterial growth to an OD of approximately 1.6 or above)
[2]; 500 ppm(m)
  Optical density valuation of C. coskatii: + (bacterial growth to an OD of approximately 1.6 or above)
[2]; 1000 ppm(m)
  Optical density valuation of C. coskatii: + (bacterial growth to an OD of approximately 1.6 or above)
